Measurements reported in US20240307283A1, “COMPOSITIONS AND METHODS FOR DECREASING PIGMENTATION” (The General Hospital Corporation, priority 2021, published 2024).

Assays:
[1] = tested on: primary human melanocytes; assay: Intracellular melanin content of primary human melanocytes with NNT inhibitors; assay type: cell-based; settings: FIG. 10D
Text: Primary human melanocytes were isolated from normal discarded foreskins and were established in TIVA medium as described previously (Khaled et al., 2010) or in Medium 254 (Life Technologies, #M254500) (Allouche et al., 2015). Human melanoma cell line UACC257 (sex unspecified) was obtained from the National Cancer Institute (NCI), Frederick Cancer Division of Cancer Treatment and Diagnosis (DCTD) Tumor Cell Line Repository. SK-MEL-30 ([…]) human melanoma cell line was from Memorial Sloan Kettering Cancer Center. Both melanoma cell lines have been authenticated by our lab using ATCC's STR profiling service. UACC257 and SK-MEL-30 cells were cultured in DMEM and RPMI medium (Life Technologies, #11875119) respectively, supplemented with 10% fetal bovine serum and 1% penicillin/streptomycin/L-glutamine in a humidified atmosphere of 95% air and 5% CO2 at 37° C.
In vitro culture with NNT inhibitors: 2,3-Butanedione 97% (2,3 BD) (Sigma Aldrich, #B85307) (1 μM, 10 μM, 100 μM, 2 mM), N,N-Dicyclohexylcarbodiimide (DCC) (Sigma Aldrich, #D80002) (1 mM, 2 mM, 10 mM), and Palmitoyl coenzyme A lithium salt (Sigma Aldrich, #P9716) (10 μM, 2 mM) were reconstituted with DMSO (American Type Culture Collection, 4-X).
Melanin quantification: Equal numbers of cells were plated in 6-well plates. The cells were then harvested 72-96 hours post siRNA or NNT inhibitors compounds, as indicated in the legends, pelleted, washed in PBS and counted. 10^6 cells were used for measurement of protein concentration with the Pierce BCA protein assay (Thermo Fisher Scientific, #23225) and 10^6 cells were resuspended in 60 μl of 1 N NaOH solution and incubated at 60° C. for 2 h or until the melanin was completely dissolved. After cooling down to room temperature, samples were centrifuged at 500×g for 10 min and the supernatants were loaded onto a 96-well plate. The melanin content was determined by measuring the absorbance at 405 nm on an Envision plate reader, compared with a melanin standard (0 to 50 μg/ml; Sigma Aldrich, #M8631). Melanin content was expressed as micrograms per milligram of protein.

primary melanocytes = assay: Cell viability of primary melanocytes, different doses; assay type: cell-based, human; settings: FIG. 10C
Method: Cell viability assay: Human melanoma cell lines and isolated primary cultured human melanocytes were propagated and tested in early passage (Passages 7 to 9). The effects of NNT inhibitors (2,3BD, DCC, and Palmitoyl coenzyme A lithium salt) on cell viability were evaluated by the CellTiter-Glo Luminescent Cell Viability Assay (Promega, #G7570) and measurement of luminescence was performed on an EnVision 2104 Multilabel Reader (PerkinElmer). Human melanoma cell lines and primary melanocytes were plated on 96-well white plates (10,000 cells/well) and were treated with the NNT inhibitors at the indicated concentrations for 24 h.

human skin = assay: UVB-induced DNA damage (CPD, γ-H2AX) in human skin; assay type: cell-based; settings: 50 mM for 5 days
Method: Skin samples considered surgical waste were obtained de-identified from healthy donors (IRB #2013P000093) undergoing reconstructive surgery, according to institutional regulations. Full thickness human abdominal skin explants were cultured in petri dishes with a solid phase and liquid phase phenol red free DMEM medium containing 20% penicillin/streptomycin/glutamine, 5% fungizone (Gibco), and 10% fetal bovine serum. Compounds were applied strictly on top of the explants, making sure no drip occurred into the underlying media. For UV irradiation experiments, a UV lamp (UV Products) was used at 1000 mJ/cm^2 UVB. For immunofluorescence, paraffin sections were deparaffinized by xylene and rehydrated gradually with ethanol to distilled water. Sections were submerged in 0.01 M citrate buffer and boiled for 10 min for retrieval of antigen. The sections were washed with TBST (0.1% Tween 20) and blocked with protein blocking solution (Agilent, #X090930-2) for 1 h at room temperature before application of primary antibody [1:100 diluted in Antibody Diluent (DAKO, #S3022)] and incubation overnight at 4° C. The following day, sections were washed with TBST three times and incubated with secondary antibody Alexa Fluor 647 goat anti-mouse IgG (G+L) (ThermoFisher Scientific, #A-21236), Alexa Fluor 594 F(ab)2 fragment of goat anti-rabbit IgG (G+L) (ThermoFisher Scientific, #A-11072), or Alexa Fluor 555 goat anti-rabbit IgG (ThermoFisher Scientific, #A-21428). After washing, the tissue sections were cover-slipped with mounting medium (SlowFade® Gold Antifade Reagent with DAPI, ThermoFisher Scientific, #S36939). MaxBlock Autofluorescence Reducing Reagent Kit (MaxVision Biosciences, #MB-L) was used to quench skin tissue autofluorescence according to the reagent instructions. […]

[2] = tested on: Zebrafish overexpressing NNT (NNT OE); assay: 2,3BD treatment of zebrafish overexpressing NNT; assay type: in vivo; settings: 100 μM for 24 hours, FIG. 11C
Method: The human NNT gene was cloned into the MiniCoopR expression plasmid to allow melanocyte-specific overexpression of NNT (Ceol et al., 2011). The mcr:NNT plasmid was injected into Tubingen zebrafish embryos at the single cell stage and incorporated into the genome through the use of Tol2 transgenesis. Larvae were raised for 5 days and then at least three images were obtained and quantified using a Nikon SMZ18 Stereomicroscope. At least 5 zebrafish embryos of each group were analyzed after 5 days using the […] software enabling pixel-based color quantification. Wildtype Tübingen zebrafish were placed in a 24 well plate at 72 hours post-fertilization, with 10 larvae per well for a total twenty larvae per condition. Larvae were treated for 24 hours with either 2,3BD (1 μM, 10 μM, 100 μM, 1 mM; Sigma Aldrich, #B85307), DCC (1 μM, 10 μM, 50 μM, 100 μM; Sigma Aldrich, #D80002), or DMSO (1:500) in E3 embryo medium. At 4 days post fertilization, larvae were imaged using a Nikon SMZ18 Stereomicroscope. Melanocytes from at least 5 zebrafish embryos of each group for each experiment were analyzed using the FIJI software enabling pixel-based color quantification.

human skin explants = assay: Pigmentation of human skin explants with topical NNT inhibitors

In the case of `CC(=O)C(C)=O` [2,3BD, 2,3-Butanedione], the intracellular melanin content ([1]; 2.3 BD 2 mM for 72 hours) is reported as “significantly increased the intracellular melanin content”, the “melanin on simultaneous treatment with siNNT” value ([1]; siNNT plus 2,3 BD) is reported as “did not further increase the melanin” and the cell viability (primary melanocytes; different doses, relative to vehicle) is reported as “no impacts on cell viability”. The in vitro toxicity (primary melanocytes; doses up, primary melanocytes) was “no significant toxicity”, the “toxicity by γ-H2AX” value (human skin) was “non-toxic” and the “UVB-induced CPD formation” value (human skin; skin type 2-3, then 1000 mJ/cm^2 UVB) was “protected against formation of UVB-induced CPD”. The “UVB-induced γ-H2AX induction” value (human skin; then UVB) was “could protect human skin from UVB-induced γ-H2AX induction”, the “melanocytic pigmentation of NNT overexpressing fish” value [2] was “prevented the NNT OE-induced decrease in melanocytic pigmentation” and the “melanin by Fontana-Masson staining” value (human skin explants; 2,3BD treated skin, FIGS. 3Ei and 10F) was “increased melanin”. For the same molecule, the “cell damage or inflammation by H&E staining” value (human skin explants; FIG. 3Eii) was “no obvious cell damage or inflammation”, the skin pigmentation (human skin explants; abdominal skin, phototype 1-2, single topical treatment 1M or 11M, after 5 days) was “strong induction of pigmentation” and the skin pigmentation (human skin explants; daily application of 50 mM, skin type 3-4, after 5 days) was “significantly increased pigmentation”.
